# “And” between values parts separate entries of the source, which are not always exact repeats. Identical values can stand only once.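 How tested: cells in 96-well plates exposed to compound for 48 hours at five concentrations. GI50 is the concentration that inhibits growth by half. TGI: total growth inhibition.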
# What was measured:
# Test in all cases: NCI-60 cell line screen, 48 h
# 786-0 renal = system: 786-0 renal
# SNB-19 CNS = system: SNB-19 CNS
# OVCAR-3 ovarian = system: OVCAR-3 ovarian
# OVCAR-8 ovarian = system: OVCAR-8 ovarian
# COLO 205 colon = system: COLO 205 colon
# HOP-62 NSCLC = system: HOP-62 NSCLC
# NCI-H522 lung = system: NCI-H522 lung
# NCI-H23 lung = system: NCI-H23 lung
# MCF7 breast = system: MCF7 breast
# SN12C renal = system: SN12C renal
SMILES,GI50 (786-0 renal),TGI (786-0 renal),GI50 (SNB-19 CNS),TGI (SNB-19 CNS),GI50 (OVCAR-3 ovarian),TGI (OVCAR-3 ovarian),GI50 (OVCAR-8 ovarian),TGI (OVCAR-8 ovarian),GI50 (COLO 205 colon),TGI (COLO 205 colon),GI50 (HOP-62 NSCLC),TGI (HOP-62 NSCLC),GI50 (NCI-H522 lung),TGI (NCI-H522 lung),GI50 (NCI-H23 lung),TGI (NCI-H23 lung),GI50 (MCF7 breast),TGI (MCF7 breast),TGI (SN12C renal),GI50 (SN12C renal)
C=C1C(=O)O[C@H]2[C@H]1CC/C(C=Nc1c(N)cc(C(F)(F)F)cc1C(F)(F)F)=C\CC[C@@]1(C)O[C@@H]21,2.04 µM,4.11 µM,1.93 µM,4.98 µM,1.41 µM,2.86 µM,1.79 µM,9.85 µM,1.35 µM,3.04 µM,2 µM,4.19 µM,1.66 µM,4.13 µM,1.77 µM,4.17 µM,0.498 µM,2.34 µM,–,–
O=[N+]([O-])c1cc([N+](=O)[O-])c(/C=C/c2ccc(Cl)c(Cl)c2)cc1/C=C/c1ccc(Cl)c(Cl)c1,–,60.3 µM,–,66.5 µM,–,59.8 µM,–,> 100 µM,–,38.6 µM,–,–,–,56.4 µM,–,50.8 µM,–,–,43.1 µM,–
O=C(OC1CCC2OOC1O2)c1ccc([N+](=O)[O-])cc1 (centres undefined),–,> 100 µM,–,> 100 µM,–,> 100 µM,–,> 100 µM,–,> 100 µM,–,> 100 µM,–,> 100 µM,–,> 100 µM,–,–,> 100 µM,–
CCCCNC(=O)C1C(=O)N(CCCC)C(=O)/C1=N\N (centres undefined),–,> 100 µM,–,> 100 µM,–,> 100 µM,–,> 100 µM,–,> 100 µM,–,> 100 µM,–,> 100 µM,–,> 100 µM,–,–,> 100 µM,–
N#Cc1c(N)n2c(nc1=Nc1ccc(Cl)cc1)sc1cc(Cl)ccc12,5.46 µM and 2.5 µM,5.03 µM,> 100 µM,> 100 µM,6.11 µM,> 100 µM,–,–,–,–,4.6 µM,30.1 µM,3.74 µM,–,–,42.4 µM,1.83 µM,> 100 µM,> 100 µM,33.5 µM
C(=N\Nc1ccccc1)/c1nc2ccccc2nc1/C=N/Nc1ccccc1,–,29.5 µM,–,35.4 µM,–,31.9 µM,–,17 µM,–,–,–,34.6 µM,–,35.9 µM,–,27.2 µM,–,–,36.4 µM,–
COc1cc2c(c(OC)c1OC)-c1ccc(OC)c(=O)cc1[C@@H](NC(C)=O)CC2,–,> 100 µM,–,–,–,–,1.35 µM,> 100 µM,–,–,0.866 µM,> 625 µM,–,–,–,–,< 0.01 µM and 0.00342 µM and < 0.0114 µM,–,> 100 µM and > 93.4 µM and 131 µM,–
CCOC(=O)C(N=C(c1ccccc1)c1ccccc1)N(C(=O)OC(C)(C)C)C(=O)OC(C)(C)C (centres undefined),–,> 100 µM,–,> 100 µM,–,> 100 µM,–,> 100 µM,–,> 100 µM,–,–,–,> 100 µM,–,> 100 µM,–,–,> 100 µM,–
COc1ccc2c(O)c(/C=C3\N=Nc4ccccc43)oc2c1C[C@@H]1CCNC[C@H]1F,1.7 µM,3.22 µM,9.29 µM,28.2 µM,1.99 µM,3.98 µM,2.28 µM,5.53 µM,1.88 µM,5.05 µM,11.1 µM,24.6 µM,1.67 µM,3.94 µM,10.6 µM,24.6 µM,3.44 µM,19.5 µM,–,–
CCOC(=O)Cc1csc(Nc2ccc(OCC)cc2)n1,–,> 100 µM,–,> 100 µM,–,> 100 µM,–,> 100 µM,–,> 100 µM,–,> 100 µM,–,> 100 µM,–,> 100 µM,–,–,> 100 µM,–
Cc1cc(Nc2ncc3c(n2)N(C)C(=O)N(c2cc(NC(=O)c4cccc(C(F)(F)F)c4)ccc2C)C3)n(C)n1,0.0599 µM,> 46.4 µM,0.234 µM,> 46.4 µM,–,–,–,–,0.019 µM,0.0368 µM,0.0769 µM,> 15.6 µM,–,–,0.0733 µM,> 31.6 µM,0.624 µM,> 46.4 µM,> 100 µM,0.0167 µM
CCCc1cc(=O)n2c(C(=O)Nc3cccc(C(=O)OCC)c3)c(C(=O)Nc3ccc(F)cc3)sc2n1,1.43 µM,5.25 µM,25.5 µM,132 µM,3.17 µM,7.75 µM,3.63 µM,15 µM,70.8 µM,> 140 µM,3.54 µM,28.8 µM,65 µM,> 140 µM,66.3 µM,> 140 µM,> 140 µM,> 140 µM,–,–
O=c1c2ccccc2nc(/C=C(\O)c2ccncc2)n1-c1ccc(Cl)cc1,–,> 100 µM,–,> 100 µM,–,> 100 µM,–,> 100 µM,–,> 100 µM,–,> 100 µM,–,> 100 µM,–,> 100 µM,–,–,> 100 µM,–
O=C1[C@@H]2C(c3ccccc3[N+](=O)[O-])=[N+](c3ccccc3)O[C@@H]2C(=O)N1c1ccc(Cc2ccc(N3C(=O)[C@H]4C(c5ccccc5[N+](=O)[O-])=[N+](c5ccccc5)O[C@H]4C3=O)cc2)cc1,–,> 100 µM,–,> 100 µM,–,> 100 µM,–,> 100 µM,–,> 100 µM,–,> 100 µM,–,> 100 µM,–,> 100 µM,–,–,> 100 µM,–
[Cl][Hg][c]1ccc(Cl)s1,1.29 µM,2.61 µM,3.15 µM,13.4 µM,–,–,2.51 µM,6.25 µM,1.39 µM,2.9 µM,4.29 µM,21.8 µM,0.114 µM,0.325 µM,2.69 µM,8.05 µM,–,–,8.19 µM,2.95 µM
NC1CCCCC1N.O=[Se]([O-])[O-].[Pt+4] (centres undefined),0.0552 µM,20.3 µM,1.32 µM,> 100 µM,17 µM,> 100 µM,0.922 µM,> 100 µM,1.19 µM,17.5 µM,2.52 µM,> 51.4 µM,0.589 µM,11.2 µM,1.51 µM,17.1 µM,–,–,> 100 µM,1.67 µM
Nc1nc(N)c(-c2ccccc2)c(C(=O)Nc2ccccc2)n1,–,> 100 µM,–,> 100 µM,–,> 100 µM,–,> 100 µM,–,> 100 µM,–,–,–,> 100 µM,–,> 100 µM,–,–,> 100 µM,–
O=C(NCc1cccnc1)C1COc2cc(-c3cc(=O)c4ccccc4o3)ccc2O1 (centres undefined),–,> 81.7 µM,–,> 67.2 µM,–,> 100 µM,–,> 55 µM,–,> 100 µM,–,24.8 µM,–,> 100 µM,–,> 100 µM,–,–,> 78 µM,–

# Reference: PubChem BioAssay (NCI)
